Data from ChEMBL document CHEMBL4602605, “Fluoroquinolones structural and medicinal developments (2013-2018): Where are we now?” (Bioorg Med Chem, 2019).
Values after ≈ are worked out from the molar mass of the structure shown.

Experiments:
Type in all cases: functional
Escherichia coli [1] = experiment: Antibacterial activity against Escherichia coli NCDC 134 by single disk method
Pseudomonas aeruginosa [2] = experiment: Antibacterial activity against Pseudomonas aeruginosa NCDC 105 by single disk method
Bacillus subtilis = experiment: Antibacterial activity against Bacillus subtilis NCDC 71 by single disk method
Paenibacillus polymyxa = experiment: Antibacterial activity against Paenibacillus polymyxa NCDC 64 by single disk method
Staphylococcus aureus = experiment: Antibacterial activity against Staphylococcus aureus NCDC 110 by single disk method
Mus musculus = experiment: Analgesic activity in Swiss albino mouse assessed as acetic acid-induced writhing number at 50 mg/kg pretreated for 30 mins followed by acetic acid challenge and measured after 5 to 15 mins (reference value: 30.8 +/- 0.37)
Metaphire posthuma = experiment: Anthelmintic activity against Pheretima posthuma assessed as mean paralysing time at 200 mg/ml
Escherichia coli [3] = experiment: Antimicrobial activity against ESBL non-producing Escherichia coli ATCC 25922
Klebsiella pneumoniae = experiment: Antimicrobial activity against ESBL-producing Klebsiella pneumoniae ATCC 700603
[4] = system: Acinetobacter calcoaceticus; experiment: Antimicrobial activity against Acinetobacter calcoaceticus ATCC 19606
Enterobacter cloacae = experiment: Antimicrobial activity against Enterobacter cloacae ATCC 43560
Pseudomonas aeruginosa [5] = experiment: Antimicrobial activity against Pseudomonas aeruginosa ATCC 27853

| SMILES | MIC (Escherichia coli [1]) [µg/mL] | MIC (Pseudomonas aeruginosa [2]) [µg/mL] | MIC (Bacillus subtilis) [µg/mL] | MIC (Paenibacillus polymyxa) [µg/mL] | MIC (Staphylococcus aureus) [µg/mL] | Activity (Mus musculus) | Time (Metaphire posthuma) [min] | MIC (Escherichia coli [3]) [µM] | MIC (Klebsiella pneumoniae) [µM] | MIC [4] [µM] | MIC (Enterobacter cloacae) [µM] | MIC (Pseudomonas aeruginosa [5]) [µM] |
| --- | --- | --- | --- | --- | --- | --- | --- | --- | --- | --- | --- | --- |
| Cc1ccc2nc(NC(=O)CN3CCN(c4cc5c(cc4F)c(=O)c(C(=O)O)cn5C4CC4)CC3)sc2c1 | 20 (≈ 37.3 µM) | 45 (≈ 84 µM) | 35 (≈ 65.3 µM) | 110 (≈ 205 µM) | 40 (≈ 74.7 µM) | 16.2 | 23.2 |  |  |  |  |  |
| O=C(CN1CCN(c2cc3c(cc2F)c(=O)c(C(=O)O)cn3C2CC2)CC1)Nc1nc2ccc([N+](=O)[O-])cc2s1 | 35 (≈ 61.8 µM) | 45 (≈ 79.4 µM) | 25 (≈ 44.1 µM) | 55 (≈ 97.1 µM) | 50 (≈ 88.3 µM) | 14.2 | 22.8 |  |  |  |  |  |
| CCn1cc(C(=O)O)c(=O)c2cc(F)c(N3CCN(CC(=O)Nc4nc5ccc(F)cc5s4)CC3)cc21 | 35 (≈ 66.3 µM) | 40 (≈ 75.8 µM) | 65 (≈ 123 µM) | 55 (≈ 104 µM) | 45 (≈ 85.3 µM) | 18.6 | 23.6 |  |  |  |  |  |
| O=C(O)c1cn([C@@H]2C[C@@H]2F)c2cc(N3CCN(Cn4nc(-c5ccccn5)n(Cc5ccccc5)c4=S)CC3)c(F)cc2c1=O |  |  |  |  |  |  |  | ≤ 0.05 | 0.79 (≈ 0.497 µg/mL) | ≤ 0.05 | 0.79 (≈ 0.497 µg/mL) | 0.79 (≈ 0.497 µg/mL) |
| O=C(CN1CCN(c2cc3c(cc2F)c(=O)c(C(=O)O)cn3C2CC2)CC1)Nc1nc2ccc(F)cc2s1 | 80 (≈ 148 µM) | 60 (≈ 111 µM) | 40 (≈ 74.1 µM) | 125 (≈ 232 µM) | 35 (≈ 64.9 µM) | 17 | 27.8 |  |  |  |  |  |
| Cc1cc(C)cc(-c2nn(CN3CCN(c4cc5c(cc4F)c(=O)c(C(=O)O)cn5[C@@H]4C[C@@H]4F)CC3)c(=S)n2Cc2ccccc2)c1 |  |  |  |  |  |  |  | ≤ 0.04 | 1.45 (≈ 0.952 µg/mL) | 5.81 (≈ 3.82 µg/mL) | ≤ 0.04 | 1.45 (≈ 0.952 µg/mL) |
| O=C(O)c1cn([C@@H]2C[C@@H]2F)c2cc(N3CCN(Cn4nc(-c5ccccn5)n(-c5ccccc5)c4=S)CC3)c(F)cc2c1=O |  |  |  |  |  |  |  | ≤ 0.05 | 1.63 (≈ 1 µg/mL) | 6.5 (≈ 4 µg/mL) | ≤ 0.05 | 1.63 (≈ 1 µg/mL) |
| O=C(O)c1cn([C@@H]2C[C@@H]2F)c2cc(N3CCN(Cn4nc(-c5ccncc5)n(-c5ccccc5)c4=S)CC3)c(F)cc2c1=O |  |  |  |  |  |  |  | 0.1 (≈ 0.0616 µg/mL) | 3.25 (≈ 2 µg/mL) | 13 (≈ 8 µg/mL) | ≤ 0.05 | 3.25 (≈ 2 µg/mL) |
| COc1cc(-c2nn(CN3CCN(c4cc5c(cc4F)c(=O)c(C(=O)O)cn5[C@@H]4C[C@@H]4F)CC3)c(=S)n2-c2ccccc2)cc(OC)c1OC |  |  |  |  |  |  |  | ≤ 0.04 | 1.42 (≈ 1 µg/mL) | 5.68 (≈ 4 µg/mL) | ≤ 0.04 | 0.71 (≈ 0.5 µg/mL) |
| COc1c(N2CCN(CC(=O)Nc3nc4c(F)cccc4s3)C(C)C2)c(F)cc2c(=O)c(C(=O)O)cn(C3CC3)c12 (stereo unspecified) | 140 (≈ 240 µM) | 50 (≈ 85.7 µM) | 70 (≈ 120 µM) | 25 (≈ 42.8 µM) | 15 (≈ 25.7 µM) | 15 | 23.6 |  |  |  |  |  |
| COc1ccc(-c2nn(CN3CCN(c4cc5c(cc4F)c(=O)c(C(=O)O)cn5[C@@H]4C[C@@H]4F)CC3)c(=S)n2-c2ccccc2)cc1OC |  |  |  |  |  |  |  | ≤ 0.04 | 2.97 (≈ 2 µg/mL) | 23.7 (≈ 16 µg/mL) | ≤ 0.04 | 1.48 (≈ 0.999 µg/mL) |
| O=C(O)c1cn([C@@H]2C[C@@H]2F)c2cc(N3CCN(Cn4nc(-c5cccnc5)n(Cc5ccccc5)c4=S)CC3)c(F)cc2c1=O |  |  |  |  |  |  |  | ≤ 0.05 | 0.4 (≈ 0.252 µg/mL) | 6.36 (≈ 4 µg/mL) | ≤ 0.05 | 1.59 (≈ 1 µg/mL) |
| COc1c(N2CCN(CC(=O)Nc3nc4c(C)cccc4s3)C(C)C2)c(F)cc2c(=O)c(C(=O)O)cn(C3CC3)c12 (stereo unspecified) | 75 (≈ 129 µM) | 85 (≈ 147 µM) | 120 (≈ 207 µM) | 60 (≈ 104 µM) | 70 (≈ 121 µM) | 20.8 | 32.4 |  |  |  |  |  |
| CCn1cc(C(=O)O)c(=O)c2cc(F)c(N3CCN(CC(=O)Nc4nc5ccc(C)cc5s4)CC3)cc21 | 65 (≈ 124 µM) | 20 (≈ 38.2 µM) | 30 (≈ 57.3 µM) | 45 (≈ 85.9 µM) | 25 (≈ 47.7 µM) | 17.8 | 28.4 |  |  |  |  |  |
| COc1cc(OC)cc(-c2nn(CN3CCN(c4cc5c(cc4F)c(=O)c(C(=O)O)cn5[C@@H]4C[C@@H]4F)CC3)c(=S)n2-c2ccccc2)c1 |  |  |  |  |  |  |  | ≤ 0.04 | 1.48 (≈ 0.999 µg/mL) | 1.48 (≈ 0.999 µg/mL) | 5.93 (≈ 4 µg/mL) | 0.09 (≈ 0.0607 µg/mL) |
| O=C(O)c1cn([C@@H]2C[C@@H]2F)c2cc(N3CCN(Cn4nc(-c5ccccc5O)n(-c5ccccc5)c4=S)CC3)c(F)cc2c1=O |  |  |  |  |  |  |  | 0.1 (≈ 0.0631 µg/mL) | 1.59 (≈ 1 µg/mL) | 12.7 (≈ 8 µg/mL) | ≤ 0.05 | 1.59 (≈ 1 µg/mL) |
| COc1c(N2CCN(CC(=O)Nc3nc4c([N+](=O)[O-])cccc4s3)C(C)C2)c(F)cc2c(=O)c(C(=O)O)cn(C3CC3)c12 (stereo unspecified) | 65 (≈ 106 µM) | 75 (≈ 123 µM) | 40 (≈ 65.5 µM) | 45 (≈ 73.7 µM) | 60 (≈ 98.3 µM) | 1.63 | 1.2 |  |  |  |  |  |
